# According to patent US20120121591A1 (priority 2009, published 2012):
# Like-named read-outs stand apart in the source and are kept apart here.
# How the values were obtained:
# Format in all cases: cell-based
# [1] = system: IFN-g secretion from T cells in human whole blood
# [2] = system: IL-2 secretion from T cells in human whole blood; settings: read-out: WB (IL-2) IC50 (nM, Avg)
# hKv1.3 = hKv1.3 (Homo sapiens, UniProt P22001); experiment: cell-based; settings: Kv1.3 (IWQ) IC50 (nM, Avg)
# [3] = read-out: WB (IFNg) IC50 (nM, Avg)
# [4] = read-out: WB (IFNg) IC5- (nM, Avg)
# hKv1.3, sequence (P22001 whole entry): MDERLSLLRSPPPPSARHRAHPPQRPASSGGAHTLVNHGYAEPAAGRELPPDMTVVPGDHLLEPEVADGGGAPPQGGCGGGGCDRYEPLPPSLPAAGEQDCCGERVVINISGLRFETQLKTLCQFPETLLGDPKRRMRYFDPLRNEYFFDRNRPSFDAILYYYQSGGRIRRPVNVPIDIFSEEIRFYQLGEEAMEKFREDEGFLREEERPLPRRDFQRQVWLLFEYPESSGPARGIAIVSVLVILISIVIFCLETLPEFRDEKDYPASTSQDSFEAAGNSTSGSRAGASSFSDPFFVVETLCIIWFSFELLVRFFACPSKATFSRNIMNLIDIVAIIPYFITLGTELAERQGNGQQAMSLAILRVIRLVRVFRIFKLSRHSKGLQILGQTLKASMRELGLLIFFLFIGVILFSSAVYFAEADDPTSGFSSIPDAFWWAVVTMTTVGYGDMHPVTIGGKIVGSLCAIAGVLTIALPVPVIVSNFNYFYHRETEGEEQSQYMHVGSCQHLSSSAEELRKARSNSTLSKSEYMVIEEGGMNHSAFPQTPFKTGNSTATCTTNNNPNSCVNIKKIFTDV
Compound,"IC50 [1, 3] [nM]",IC50 [2] [nM],IC50 (hKv1.3) [nM],"IC50 [1, 4] [nM]"
CCCC[C@@H]1NC(=O)[C@H](CO)NC(=O)[C@H](Cc2c[nH]cn2)NC(=O)[C@H](CCCCN)NC(=O)[C@@H]2CSSC[C@@H]3NC(=O)[C@H]([C@@H](C)O)NC(=O)[C@H](CCCNC(=N)N)NC(=O)[C@H](CCCCN)NC(=O)[C@H](CSSC[C@H](NC(=O)[C@H](CCCNC(=N)N)NC(=O)[C@H](CO)NC(=O)[C@H](CCCCN)NC(=O)[C@@H]4CCCN4C(=O)[C@H]([C@@H](C)CC)NC(=O)[C@H]([C@@H](C)O)NC(=O)[C@H](CC(=O)O)NC(=O)[C@H](CCC(=O)O)NC(=O)[C@@H](NC(=O)[C@H](CO)NC(=O)[C@@H](N)CCCNC(=N)N)CSSC[C@@H](C(N)=O)NC(=O)[C@H]([C@@H](C)O)NC(=O)CNC3=O)C(=O)N[C@@H]([C@@H](C)O)C(=O)N[C@@H](C)C(=O)N[C@@H](Cc3ccccc3)C(=O)N[C@@H](CCCCN)C(=O)N2)NC(=O)[C@H](Cc2ccccc2)NC(=O)[C@H](Cc2cccc3ccccc23)NC(=O)[C@H](CC(C)C)NC(=O)[C@H](CCCNC(=N)N)NC(=O)[C@H](Cc2ccc(O)cc2)NC(=O)[C@H](CCCCN)NC1=O,17.4,10.7,1.66,–
"CC[C@H](C)[C@@H]1NC(=O)[C@@H](NC(=O)[C@H](CO)NC(=O)[C@@H](N)CCCNC(=N)N)CSSC[C@@H](C(=O)N[C@@H](C)C(=O)O)NC(=O)[C@H]([C@@H](C)O)NC(=O)CNC(=O)[C@@H]2CSSC[C@@H]3NC(=O)[C@H](CCCCN)NC(=O)[C@H](Cc4ccccc4)NC(=O)[C@H](C)NC(=O)[C@H]([C@@H](C)O)NC(=O)[C@H](CSSC[C@H](NC(=O)[C@H](Cc4ccccc4)NC(=O)[C@H](CO)NC(=O)[C@H](CC(C)C)NC(=O)[C@H](CCCNC(=N)N)NC(=O)[C@H](Cc4ccc(O)cc4)NC(=O)[C@H](CCCCN)NC(=O)[C@H](CCC(N)=O)NC(=O)[C@H](CO)NC(=O)[C@H](Cc4c[nH]cn4)NC(=O)[C@H](CCCCN)NC3=O)C(=O)N[C@@H](CCCNC(=N)N)C(=O)N[C@@H](CCCCN)C(=O)N[C@@H]([C@@H](C)O)C(=O)N2)NC(=O)[C@H](CCCNC(=N)N)NC(=O)[C@H](CO)NC(=O)[C@H](CCCCN)NC(=O)[C@@H]2CCCN2C(=O)[C@H]([C@@H](C)CC)NC(=O)[C@H]([C@@H](C)O)NC(=O)[C@H](CC(=O)O)NC1=O [[Lys16,Gln21]ShK-Ala]",0.206,0.168,4.01,–
CC[C@H](C)[C@@H]1NC(=O)[C@@H](NC(=O)[C@H](CO)NC(=O)[C@@H](N)CCCNC(=N)N)CSSC[C@@H](C(=O)O)NC(=O)[C@H]([C@@H](C)O)NC(=O)CNC(=O)[C@@H]2CSSC[C@@H]3NC(=O)[C@H](CCC(N)=O)NC(=O)[C@H](Cc4ccccc4)NC(=O)[C@H](C)NC(=O)[C@H]([C@@H](C)O)NC(=O)[C@H](CSSC[C@H](NC(=O)[C@H](Cc4ccccc4)NC(=O)[C@H](CO)NC(=O)[C@H](CC(C)C)NC(=O)[C@H](CCCNC(=N)N)NC(=O)[C@H](Cc4ccc(O)cc4)NC(=O)[C@H](CCCCN)NC(=O)[C@H](CCSC)NC(=O)[C@H](CO)NC(=O)[C@H](Cc4c[nH]cn4)NC(=O)[C@H](CCCCN)NC3=O)C(=O)N[C@@H](CCCNC(=N)N)C(=O)N[C@@H](CCCCN)C(=O)N[C@@H]([C@@H](C)O)C(=O)N2)NC(=O)[C@H](CCCNC(=N)N)NC(=O)[C@H](CO)NC(=O)[C@H](CCCCN)NC(=O)[C@@H]2CCCN2C(=O)[C@H](CCC(=O)O)NC(=O)[C@H]([C@@H](C)O)NC(=O)[C@H](CC(=O)O)NC1=O [[Glu7]ShK],–,5,1.25,19.5
CC[C@H](C)[C@@H]1NC(=O)[C@@H](NC(=O)[C@H](CO)NC(=O)[C@@H](N)CCCNC(=N)N)CSSC[C@@H](C(=O)O)NC(=O)[C@H]([C@@H](C)O)NC(=O)CNC(=O)[C@@H]2CSSC[C@@H]3NC(=O)[C@H](CCC(N)=O)NC(=O)[C@H](Cc4ccccc4)NC(=O)[C@H](C)NC(=O)[C@H]([C@@H](C)O)NC(=O)[C@H](CSSC[C@H](NC(=O)[C@H](Cc4ccccc4)NC(=O)[C@H](CO)NC(=O)[C@H](CC(C)C)NC(=O)[C@H](CCCNC(=N)N)NC(=O)[C@H](Cc4ccc(O)cc4)NC(=O)[C@H](CCCCN)NC(=O)[C@H](CCSC)NC(=O)[C@H](CO)NC(=O)[C@H](Cc4c[nH]cn4)NC(=O)[C@H](CCCCN)NC3=O)C(=O)N[C@@H](CCCNC(=N)N)C(=O)N[C@@H](CCCCN)C(=O)N[C@@H]([C@@H](C)O)C(=O)N2)NC(=O)[C@H](CCCNC(=N)N)NC(=O)[C@H](CCC(=O)O)NC(=O)[C@H](CCCCN)NC(=O)[C@@H]2CCCN2C(=O)[C@H]([C@@H](C)CC)NC(=O)[C@H]([C@@H](C)O)NC(=O)[C@H](CC(=O)O)NC1=O [[Glu10]ShK],–,0.023,0.134,0.055
CC[C@H](C)[C@@H]1NC(=O)[C@@H](NC(=O)[C@H](CO)NC(=O)[C@@H](N)CCCNC(=N)N)CSSC[C@@H](C(=O)O)NC(=O)[C@H]([C@@H](C)O)NC(=O)CNC(=O)[C@@H]2CSSC[C@@H]3NC(=O)[C@H](CCC(N)=O)NC(=O)[C@H](Cc4ccccc4)NC(=O)[C@H](C)NC(=O)[C@H]([C@@H](C)O)NC(=O)[C@H](CSSC[C@H](NC(=O)[C@H](Cc4ccccc4)NC(=O)[C@H](CO)NC(=O)[C@H](CC(C)C)NC(=O)[C@H](CCCNC(=N)N)NC(=O)[C@H](Cc4ccc(O)cc4)NC(=O)[C@H](CCCCN)NC(=O)[C@H](CCSC)NC(=O)[C@H](CO)NC(=O)[C@H](Cc4c[nH]cn4)NC(=O)[C@H](CCCCN)NC3=O)C(=O)N[C@@H](CCCNC(=N)N)C(=O)N[C@@H](CCCCN)C(=O)N[C@@H]([C@@H](C)O)C(=O)N2)NC(=O)[C@H](CCCNC(=N)N)NC(=O)[C@H](CCCNC(=N)N)NC(=O)[C@H](CCCCN)NC(=O)[C@@H]2CCCN2C(=O)[C@H]([C@@H](C)CC)NC(=O)[C@H]([C@@H](C)O)NC(=O)[C@H](CC(=O)O)NC1=O [[Arg10]ShK],0.068,0.029,0.07,–
"CCCC[C@@H]1NC(=O)[C@H](CO)NC(=O)[C@H](Cc2c[nH]cn2)NC(=O)[C@H](CCCCN)NC(=O)[C@@H]2CSSC[C@@H]3NC(=O)[C@H]([C@@H](C)O)NC(=O)[C@H](CCCCN)NC(=O)[C@H](CCCNC(=N)N)NC(=O)[C@H](CSSC[C@H](NC(=O)[C@H](CCCNC(=N)N)NC(=O)[C@H](CO)NC(=O)[C@H](CCCCN)NC(=O)[C@@H]4CCCN4C(=O)[C@H]([C@@H](C)CC)NC(=O)[C@H]([C@@H](C)O)NC(=O)[C@H](CC(=O)O)NC(=O)[C@H]([C@@H](C)CC)NC(=O)[C@@H](NC(=O)[C@H](CO)NC(=O)[C@@H](N)CCCNC(=N)N)CSSC[C@@H](C(=O)N[C@@H](Cc4ccc(O)cc4)C(=O)O)NC(=O)[C@H]([C@@H](C)O)NC(=O)CNC3=O)C(=O)N[C@@H]([C@@H](C)O)C(=O)N[C@@H](C)C(=O)N[C@@H](Cc3ccccc3)C(=O)N[C@@H](CCCCN)C(=O)N2)NC(=O)[C@H](Cc2ccccc2)NC(=O)[C@H](CO)NC(=O)[C@H](CC(C)C)NC(=O)[C@H](CCCNC(=N)N)NC(=O)[C@H](Cc2ccc(O)cc2)NC(=O)[C@H](CCCCN)NC1=O [[Lys16,N1e21]ShK-Tyr]",0.485,0.418,109,–
"CCCC[C@@H]1NC(=O)[C@H](CO)NC(=O)[C@H](Cc2c[nH]cn2)NC(=O)[C@H](CCCCN)NC(=O)[C@@H]2CSSC[C@@H]3NC(=O)[C@H]([C@@H](C)O)NC(=O)[C@H](CCCCN)NC(=O)[C@H](CCCNC(=N)N)NC(=O)[C@H](CSSC[C@H](NC(=O)[C@H](CCCNC(=N)N)NC(=O)[C@H](CO)NC(=O)[C@H](CCCCN)NC(=O)[C@@H]4CCCN4C(=O)[C@H]([C@@H](C)CC)NC(=O)[C@H]([C@@H](C)O)NC(=O)[C@H](CC(=O)O)NC(=O)[C@H]([C@@H](C)CC)NC(=O)[C@@H](NC(=O)[C@H](CO)NC(=O)[C@@H](N)CCCNC(=N)N)CSSC[C@@H](C(N)=O)NC(=O)[C@H]([C@@H](C)O)NC(=O)CNC3=O)C(=O)N[C@@H]([C@@H](C)O)C(=O)N[C@@H](C)C(=O)N[C@@H](Cc3ccccc3)C(=O)N[C@@H](CC(N)=O)C(=O)N2)NC(=O)[C@H](Cc2ccccc2)NC(=O)[C@H](CO)NC(=O)[C@H](CC(C)C)NC(=O)[C@H](CCCNC(=N)N)NC(=O)[C@H](Cc2ccc(O)cc2)NC(=O)[C@H](CCCCN)NC1=O [[Asn16,Nle21]ShK-amide]",1.07,0.689,0.171,–
"CCC[C@@H]1NC(=O)[C@H](CO)NC(=O)[C@H](Cc2c[nH]cn2)NC(=O)[C@H](CCCCN)NC(=O)[C@@H]2CSSC[C@@H]3NC(=O)[C@H]([C@@H](C)O)NC(=O)[C@H](CCCCN)NC(=O)[C@H](CCCNC(=N)N)NC(=O)[C@H](CSSC[C@H](NC(=O)[C@H](CCCNC(=N)N)NC(=O)[C@H](CO)NC(=O)[C@H](CCCCN)NC(=O)[C@@H]4CCCN4C(=O)[C@H]([C@@H](C)CC)NC(=O)[C@H]([C@@H](C)O)NC(=O)[C@H](CC(=O)O)NC(=O)[C@H](CCC(=O)O)NC(=O)[C@@H](NC(=O)[C@H](CO)NC(=O)[C@@H](N)CCCNC(=N)N)CSSC[C@@H](C(=O)N[C@@H](C)C(=O)O)NC(=O)[C@H]([C@@H](C)O)NC(=O)CNC3=O)C(=O)N[C@@H]([C@@H](C)O)C(=O)N[C@@H](C)C(=O)N[C@@H](Cc3ccccc3)C(=O)N[C@@H](CCCCN)C(=O)N2)NC(=O)[C@H](Cc2ccccc2)NC(=O)[C@H](CO)NC(=O)[C@H](CC(C)C)NC(=O)[C@H](CCCNC(=N)N)NC(=O)[C@H](Cc2ccc(O)cc2)NC(=O)[C@H](CCCCN)NC1=O [[Glu4,Lys16,Nva21]ShK-Ala]",0.368,0.208,33.3,–
